We go through 1 molecule from paper PMC10382584, “Macrocyclization of linear molecules by deep learning to facilitate macrocyclic drug candidates discovery” (Nature Communications, 2023).

Targets include NEK11 (Homo sapiens, UniProt Q8NG66); RET (Homo sapiens, UniProt P07949); EIF2AK1 (Homo sapiens, UniProt Q9BQI3); PKN1 (Homo sapiens, UniProt Q16512); PIK3CA(Q546K) (Homo sapiens, UniProt P42336, Q546K); RET(V804L) (Homo sapiens, UniProt P07949, V804L); PIP5K1C (Homo sapiens, UniProt O60331); CDK9 (Homo sapiens, UniProt P50750); PIKFYVE (Homo sapiens, UniProt Q9Y2I7); PIK3CG (Homo sapiens, UniProt P48736); CSNK1E (Homo sapiens, UniProt P49674); EGFR(L858R,T790M) (Homo sapiens, UniProt P00533, L858R/T790M); GSK3B (Homo sapiens, UniProt P49841); PAK1 (Homo sapiens, UniProt Q13153); TBK1 (Homo sapiens, UniProt Q9UHD2); BRAF(V600E) (Homo sapiens, UniProt P15056, V600E); TAOK1 (Homo sapiens, UniProt Q7L7X3); AURKA (Homo sapiens, UniProt O14965).

Common to all, as to assay: biochemical
Common to all, as to parameters: DiscoveRx KINOMEscan competition binding, percent of DMSO control signal at 100 nM
Common to all, as to details: read-out: Fig. 4a / Percent Control / Compound 1; percent of DMSO control, competition binding

Another assay deals with T1, SNARK (Homo sapiens, UniProt Q9H093).
T1 construct: gene NUAK2

Assay [1] addresses EGFR(L747-S752del, P753S) (Homo sapiens, UniProt P00533, DEL747-752/P753S).
The target of assay [2] is T2, RPS6KA4(Kin.Dom.2-C-terminal) (Homo sapiens, UniProt O75676).
T2 construct: Kin.Dom.2-C-terminal

A further assay concerns the target T3, ADCK3 (Homo sapiens, UniProt Q8NI60).
T3 construct: gene COQ8A

The target in assay [3] is EGFR(L747-E749del, A750P) (Homo sapiens, UniProt P00533, A750P/DEL747-749).
The next assay has as its target T4, PCTK2 (Homo sapiens, UniProt Q00537).
T4 construct: gene CDK17

Each structure is given as a SMILES string.
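Also: KINOMEscan kinase panel binding assay, signal normalized between DMSO as 100% and a positive control compound as 0%.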

Sequence of PIK3CA(Q546K) (P42336 whole entry Q546K): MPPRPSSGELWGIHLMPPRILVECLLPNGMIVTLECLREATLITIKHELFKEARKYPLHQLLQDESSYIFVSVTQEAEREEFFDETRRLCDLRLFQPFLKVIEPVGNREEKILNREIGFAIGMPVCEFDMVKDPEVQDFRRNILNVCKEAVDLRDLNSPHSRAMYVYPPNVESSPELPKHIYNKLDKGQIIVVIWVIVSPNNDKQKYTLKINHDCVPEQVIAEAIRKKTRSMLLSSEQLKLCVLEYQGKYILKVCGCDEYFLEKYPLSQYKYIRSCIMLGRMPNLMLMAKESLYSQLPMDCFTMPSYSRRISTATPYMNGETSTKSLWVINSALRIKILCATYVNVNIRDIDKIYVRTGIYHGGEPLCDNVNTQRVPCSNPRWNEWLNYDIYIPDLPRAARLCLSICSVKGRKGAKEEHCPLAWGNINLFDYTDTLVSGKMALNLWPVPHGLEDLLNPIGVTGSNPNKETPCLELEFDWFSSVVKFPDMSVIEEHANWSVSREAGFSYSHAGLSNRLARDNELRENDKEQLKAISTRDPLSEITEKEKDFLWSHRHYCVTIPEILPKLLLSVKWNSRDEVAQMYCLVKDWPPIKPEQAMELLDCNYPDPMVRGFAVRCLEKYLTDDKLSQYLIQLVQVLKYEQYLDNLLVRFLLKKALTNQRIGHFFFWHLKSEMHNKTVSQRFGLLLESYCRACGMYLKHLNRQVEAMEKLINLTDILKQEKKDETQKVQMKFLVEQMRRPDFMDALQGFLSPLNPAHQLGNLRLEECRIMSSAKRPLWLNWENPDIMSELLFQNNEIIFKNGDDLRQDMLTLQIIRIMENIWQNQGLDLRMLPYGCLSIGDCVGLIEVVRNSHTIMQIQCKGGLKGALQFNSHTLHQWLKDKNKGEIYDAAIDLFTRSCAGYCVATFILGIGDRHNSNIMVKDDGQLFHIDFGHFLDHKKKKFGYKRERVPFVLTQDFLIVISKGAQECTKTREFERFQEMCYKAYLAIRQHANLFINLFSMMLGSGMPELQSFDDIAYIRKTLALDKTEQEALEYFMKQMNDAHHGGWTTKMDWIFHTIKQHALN
Sequence of PAK1 (Q13153 whole entry): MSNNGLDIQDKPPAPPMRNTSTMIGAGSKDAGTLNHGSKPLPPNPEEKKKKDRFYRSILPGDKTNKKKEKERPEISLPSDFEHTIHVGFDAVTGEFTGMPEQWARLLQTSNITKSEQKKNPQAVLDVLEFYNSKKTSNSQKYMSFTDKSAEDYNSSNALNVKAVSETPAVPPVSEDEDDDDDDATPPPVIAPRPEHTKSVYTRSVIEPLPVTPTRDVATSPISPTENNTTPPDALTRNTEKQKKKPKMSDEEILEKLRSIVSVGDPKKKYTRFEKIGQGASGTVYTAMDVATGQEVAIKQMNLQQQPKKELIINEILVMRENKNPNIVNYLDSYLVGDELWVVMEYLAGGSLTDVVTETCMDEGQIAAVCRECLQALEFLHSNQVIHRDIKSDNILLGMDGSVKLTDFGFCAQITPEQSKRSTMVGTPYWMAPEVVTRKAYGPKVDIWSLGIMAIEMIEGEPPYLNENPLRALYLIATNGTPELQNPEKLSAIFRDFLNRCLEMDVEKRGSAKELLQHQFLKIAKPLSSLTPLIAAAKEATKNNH
Sequence of EGFR(L747-E749del, A750P) (P00533 with tags, fused parts or gaps DEL747-749/A750P): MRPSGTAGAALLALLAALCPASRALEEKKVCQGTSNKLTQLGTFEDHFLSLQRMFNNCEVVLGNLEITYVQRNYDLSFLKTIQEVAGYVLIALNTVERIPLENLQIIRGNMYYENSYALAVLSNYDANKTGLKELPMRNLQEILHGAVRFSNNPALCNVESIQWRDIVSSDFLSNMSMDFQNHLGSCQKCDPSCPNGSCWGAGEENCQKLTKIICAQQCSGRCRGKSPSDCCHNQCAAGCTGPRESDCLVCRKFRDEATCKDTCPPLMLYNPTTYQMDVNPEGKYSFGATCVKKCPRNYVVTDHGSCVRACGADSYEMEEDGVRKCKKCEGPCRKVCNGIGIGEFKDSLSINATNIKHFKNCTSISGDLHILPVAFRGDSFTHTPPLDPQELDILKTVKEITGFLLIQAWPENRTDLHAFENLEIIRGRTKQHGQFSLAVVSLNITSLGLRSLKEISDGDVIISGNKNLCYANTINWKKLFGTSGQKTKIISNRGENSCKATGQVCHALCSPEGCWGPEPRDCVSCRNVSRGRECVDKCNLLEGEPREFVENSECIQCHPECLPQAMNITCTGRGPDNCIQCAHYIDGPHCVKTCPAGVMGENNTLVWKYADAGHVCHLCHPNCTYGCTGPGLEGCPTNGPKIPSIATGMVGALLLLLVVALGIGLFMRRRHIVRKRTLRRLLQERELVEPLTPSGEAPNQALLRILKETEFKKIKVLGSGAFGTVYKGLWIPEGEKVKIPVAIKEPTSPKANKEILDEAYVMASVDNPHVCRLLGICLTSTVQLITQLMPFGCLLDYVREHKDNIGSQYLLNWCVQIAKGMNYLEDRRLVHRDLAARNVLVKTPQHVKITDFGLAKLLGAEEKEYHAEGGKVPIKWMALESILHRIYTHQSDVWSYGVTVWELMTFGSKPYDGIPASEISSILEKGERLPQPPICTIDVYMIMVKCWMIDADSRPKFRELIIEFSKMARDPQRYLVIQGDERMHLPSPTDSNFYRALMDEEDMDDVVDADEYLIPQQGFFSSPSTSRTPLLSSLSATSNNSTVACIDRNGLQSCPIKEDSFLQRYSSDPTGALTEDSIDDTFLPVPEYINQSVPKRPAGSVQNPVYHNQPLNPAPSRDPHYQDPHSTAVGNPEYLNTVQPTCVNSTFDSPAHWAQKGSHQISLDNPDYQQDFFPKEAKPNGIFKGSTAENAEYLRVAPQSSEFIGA
Sequence of PIP5K1C (O60331 whole entry): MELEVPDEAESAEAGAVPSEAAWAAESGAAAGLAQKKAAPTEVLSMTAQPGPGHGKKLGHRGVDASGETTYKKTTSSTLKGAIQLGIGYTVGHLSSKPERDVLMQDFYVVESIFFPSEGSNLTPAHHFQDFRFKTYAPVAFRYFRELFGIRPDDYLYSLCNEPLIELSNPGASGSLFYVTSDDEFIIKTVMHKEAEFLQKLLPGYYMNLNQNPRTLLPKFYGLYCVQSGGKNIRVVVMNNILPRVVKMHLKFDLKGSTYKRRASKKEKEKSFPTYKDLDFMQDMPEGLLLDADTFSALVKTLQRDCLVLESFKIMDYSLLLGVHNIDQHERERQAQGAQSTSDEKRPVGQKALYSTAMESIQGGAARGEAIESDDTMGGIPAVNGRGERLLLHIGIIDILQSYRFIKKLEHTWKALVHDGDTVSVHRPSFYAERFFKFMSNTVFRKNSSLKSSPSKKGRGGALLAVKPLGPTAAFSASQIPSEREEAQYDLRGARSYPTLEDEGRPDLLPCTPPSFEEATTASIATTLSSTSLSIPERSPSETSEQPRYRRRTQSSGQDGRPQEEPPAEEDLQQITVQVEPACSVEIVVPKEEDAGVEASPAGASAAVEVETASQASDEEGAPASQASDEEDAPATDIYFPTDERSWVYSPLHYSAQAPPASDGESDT
Sequence of CSNK1E (P49674 whole entry): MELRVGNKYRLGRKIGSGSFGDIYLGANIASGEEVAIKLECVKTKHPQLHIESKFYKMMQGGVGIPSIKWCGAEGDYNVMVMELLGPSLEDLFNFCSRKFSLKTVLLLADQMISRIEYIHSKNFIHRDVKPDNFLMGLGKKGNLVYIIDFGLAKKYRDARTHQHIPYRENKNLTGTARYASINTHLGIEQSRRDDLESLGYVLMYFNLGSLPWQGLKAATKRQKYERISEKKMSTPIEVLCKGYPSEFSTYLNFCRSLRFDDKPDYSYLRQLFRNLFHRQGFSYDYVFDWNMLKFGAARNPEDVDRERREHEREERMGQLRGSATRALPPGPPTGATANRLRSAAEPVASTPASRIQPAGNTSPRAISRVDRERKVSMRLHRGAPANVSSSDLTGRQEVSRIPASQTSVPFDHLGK
Sequence of PIK3CG (P48736 whole entry): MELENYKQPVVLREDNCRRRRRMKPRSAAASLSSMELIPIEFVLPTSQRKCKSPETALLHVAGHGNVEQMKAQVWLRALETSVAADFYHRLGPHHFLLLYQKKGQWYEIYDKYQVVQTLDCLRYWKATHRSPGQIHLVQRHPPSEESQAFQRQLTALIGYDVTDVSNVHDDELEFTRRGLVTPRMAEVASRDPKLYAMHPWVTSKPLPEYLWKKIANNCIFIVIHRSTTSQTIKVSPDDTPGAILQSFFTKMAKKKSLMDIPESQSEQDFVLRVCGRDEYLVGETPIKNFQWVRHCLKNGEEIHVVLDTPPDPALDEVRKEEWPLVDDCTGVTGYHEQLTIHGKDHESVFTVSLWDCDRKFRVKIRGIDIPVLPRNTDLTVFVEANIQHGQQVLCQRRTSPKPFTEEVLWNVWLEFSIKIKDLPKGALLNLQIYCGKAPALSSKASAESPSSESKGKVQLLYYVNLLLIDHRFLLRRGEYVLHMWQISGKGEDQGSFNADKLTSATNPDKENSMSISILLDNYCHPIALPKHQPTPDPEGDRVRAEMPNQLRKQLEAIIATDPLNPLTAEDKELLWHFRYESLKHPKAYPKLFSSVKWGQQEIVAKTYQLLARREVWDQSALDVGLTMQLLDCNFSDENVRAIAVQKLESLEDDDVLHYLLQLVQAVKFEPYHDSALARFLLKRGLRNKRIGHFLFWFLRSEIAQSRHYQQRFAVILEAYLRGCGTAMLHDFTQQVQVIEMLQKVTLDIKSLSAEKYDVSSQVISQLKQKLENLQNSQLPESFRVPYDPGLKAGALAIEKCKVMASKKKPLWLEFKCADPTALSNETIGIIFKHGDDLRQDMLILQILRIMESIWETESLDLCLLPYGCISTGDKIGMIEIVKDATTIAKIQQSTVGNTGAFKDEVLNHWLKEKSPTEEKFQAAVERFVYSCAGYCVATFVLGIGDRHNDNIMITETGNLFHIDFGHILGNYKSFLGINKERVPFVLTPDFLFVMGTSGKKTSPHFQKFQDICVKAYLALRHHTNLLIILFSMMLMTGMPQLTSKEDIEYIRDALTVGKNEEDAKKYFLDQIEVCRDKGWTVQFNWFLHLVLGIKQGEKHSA

`Cc1cnc2nc1Nc1cccc(c1)COCc1cc(ccc1OCCN1CCCC1)N2` [Compound 1]: the remaining binding at 0.1 µM at NEK11 worked out at 69%; at SNARK it was 36%; in assay [1], 80%; at RET it was 96%; on EIF2AK1 it was 76%; on PKN1, 93%. The remaining binding at 0.1 µM at PIK3CA(Q546K) amounted to 70%; on RET(V804L), 88%; at PIP5K1C, 66%; on CDK9 it was 99%; at PIKFYVE, 100%; at PIK3CG, 69%. Moreover, the remaining binding at 0.1 µM was 70% on CSNK1E; 75% in [2]; 65% at EGFR(L858R,T790M); 84% on GSK3B; 100% at PAK1; 96% at ADCK3. For the same molecule, the remaining binding at 0.1 µM is 76% at TBK1; 93% at BRAF(V600E); 88% in [3]; 72% on TAOK1; 38% at AURKA; 98% on PCTK2.
